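Where inhibition never reached the appropriate level, the endpoint shown equals the highest concentration tested. Otherwise, values were interpolated linearly from a five-concentration, 48-hour dose response in 96-well plates. GI50 is the concentration that inhibits growth by half.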 Activity calls are given as the source filed them. Rule as the data show it: active = GI50 up to about 1.1 µM and inactive = higher.
Tests used:
Experiment in all cases: NCI tumour cell line growth inhibition, 48 h
786-0 = system: 786-0
A549 = system: A549
ACHN = system: ACHN
CAKI-1 = system: CAKI-1
CCRF-CEM = system: CCRF-CEM
COLO 205 = system: COLO 205
DMS-114 = system: DMS-114
DMS-273 = system: DMS-273
EKVX = system: EKVX
HCC 2998 = system: HCC 2998
HCT-116 = system: HCT-116
HCT-15 = system: HCT-15
HL-60 = system: HL-60
HOP-18 = system: HOP-18
HOP-92 = system: HOP-92
HT-29 = system: HT-29
IGROV-1 = system: IGROV-1
K562 = system: K562
KM-20L2 = system: KM-20L2
KM12 = system: KM12
LOX IMVI = system: LOX IMVI
LXFL 529 = system: LXFL 529
M14 = system: M14
M19-MEL = system: M19-MEL
MOLT-4 = system: MOLT-4
Malme-3M = system: Malme-3M
NCI-H226 = system: NCI-H226
NCI-H23 = system: NCI-H23
NCI-H460 = system: NCI-H460
NCI-H522 = system: NCI-H522
OVCAR-3 = system: OVCAR-3
OVCAR-4 = system: OVCAR-4
OVCAR-5 = system: OVCAR-5
OVCAR-8 = system: OVCAR-8
RPMI-8226 = system: RPMI-8226
RXF 393 = system: RXF 393
SF-295 = system: SF-295
SK-MEL-28 = system: SK-MEL-28
SK-MEL-2 = system: SK-MEL-2
SK-MEL-5 = system: SK-MEL-5
SK-OV-3 = system: SK-OV-3
SN12C = system: SN12C
SNB-19 = system: SNB-19
SNB-75 = system: SNB-75
SNB-78 = system: SNB-78
SR = system: SR
SW-620 = system: SW-620
TK-10 = system: TK-10
U-251 = system: U-251
UACC-257 = system: UACC-257
UACC-62 = system: UACC-62
UO-31 = system: UO-31
XF498 = system: XF498
HOP-62 = system: HOP-62
SF-268 = system: SF-268
A498 = system: A498
DLD-1 = system: DLD-1
SF-539 = system: SF-539

COC(=O)C1CSC(c2csc(CCN)n2)=N1 (configuration not stated)
GI50 (786-0): > 100 µM (inactive) | GI50 (A549): > 100 µM (inactive) | GI50 (ACHN): > 100 µM (inactive) | GI50 (CAKI-1): > 100 µM (inactive) | GI50 (CCRF-CEM): > 100 µM (inactive) | GI50 (COLO 205): > 100 µM (inactive) | GI50 (DMS-114): > 100 µM (inactive) | GI50 (DMS-273): > 100 µM (inactive) | GI50 (EKVX): > 100 µM (inactive) | GI50 (HCC 2998): > 100 µM (inactive) | GI50 (HCT-116): > 100 µM (inactive) | GI50 (HCT-15): > 100 µM | GI50 (HL-60): > 100 µM (inactive) | GI50 (HOP-18): > 100 µM (inactive) | GI50 (HOP-92): > 100 µM (inactive) | GI50 (HT-29): > 100 µM (inactive) | GI50 (IGROV-1): > 100 µM (inactive) | GI50 (K562): > 100 µM (inactive) | GI50 (KM-20L2): > 100 µM (inactive) | GI50 (KM12): > 100 µM (inactive) | GI50 (LOX IMVI): > 100 µM (inactive) | GI50 (LXFL 529): > 100 µM (inactive) | GI50 (M14): > 100 µM (inactive) | GI50 (M19-MEL): > 100 µM (inactive) | GI50 (MOLT-4): > 100 µM (inactive) | GI50 (Malme-3M): > 100 µM (inactive) | GI50 (NCI-H226): > 100 µM (inactive) | GI50 (NCI-H23): > 100 µM (inactive) | GI50 (NCI-H460): > 100 µM (inactive) | GI50 (NCI-H522): > 100 µM (inactive) | GI50 (OVCAR-3): > 100 µM (inactive) | GI50 (OVCAR-4): > 100 µM (inactive) | GI50 (OVCAR-5): > 100 µM (inactive) | GI50 (OVCAR-8): > 100 µM (inactive) | GI50 (RPMI-8226): > 100 µM (inactive) | GI50 (RXF 393): > 100 µM (inactive) | GI50 (SF-295): > 100 µM (inactive) | GI50 (SK-MEL-28): > 100 µM (inactive) | GI50 (SK-MEL-2): > 100 µM (inactive) | GI50 (SK-MEL-5): > 100 µM (inactive) | GI50 (SK-OV-3): > 100 µM (inactive) | GI50 (SN12C): > 100 µM (inactive) | GI50 (SNB-19): > 100 µM (inactive) | GI50 (SNB-75): > 100 µM (inactive) | GI50 (SNB-78): > 100 µM (inactive) | GI50 (SR): > 100 µM (inactive) | GI50 (SW-620): > 100 µM (inactive) | GI50 (TK-10): > 100 µM (inactive) | GI50 (U-251): > 100 µM (inactive) | GI50 (UACC-257): > 100 µM (inactive) | GI50 (UACC-62): > 100 µM (inactive) | GI50 (UO-31): > 100 µM (inactive) | GI50 (XF498): > 100 µM (inactive)

O=c1n(CCCCn2c(=O)n(CC3CS3)c3ccccc32)c2ccccc2n1CC1CS1 (configuration not stated)
GI50 (ACHN): 25.1 µM (inactive) | GI50 (CAKI-1): 17.3 µM (inactive) | GI50 (CCRF-CEM): 17.1 µM (inactive) | GI50 (COLO 205): 19 µM (inactive) | GI50 (DMS-114): > 10 µM (inactive) | GI50 (DMS-273): 19.2 µM (inactive) | GI50 (EKVX): 24.3 µM (inactive) | GI50 (HCC 2998): 19.7 µM (inactive) | GI50 (HCT-116): 18.7 µM (inactive) | GI50 (HCT-15): 18.2 µM | GI50 (HL-60): 2.17 µM (inactive) | GI50 (HOP-62): 22.3 µM (inactive) | GI50 (HOP-92): 23.9 µM (inactive) | GI50 (IGROV-1): 13.5 µM (inactive) | GI50 (K562): 15.7 µM (inactive) | GI50 (KM12): 11.4 µM (inactive) | GI50 (LOX IMVI): 3.14 µM (inactive) | GI50 (LXFL 529): 14.3 µM (inactive) | GI50 (M14): 8.99 µM (inactive) | GI50 (M19-MEL): 19.2 µM (inactive) | GI50 (MOLT-4): 1.95 µM (inactive) | GI50 (Malme-3M): 10.5 µM (inactive) | GI50 (NCI-H522): 16.6 µM (inactive) | GI50 (OVCAR-3): 10.4 µM (inactive) | GI50 (OVCAR-4): 15.5 µM (inactive) | GI50 (RPMI-8226): 10.9 µM (inactive) | GI50 (SF-268): 24.9 µM (inactive) | GI50 (SK-MEL-2): 11.9 µM (inactive) | GI50 (SK-OV-3): 58.1 µM (inactive) | GI50 (SN12C): 14.1 µM (inactive) | GI50 (SNB-75): 26.1 µM (inactive) | GI50 (SR): 3.87 µM (inactive) | GI50 (SW-620): 18.6 µM (inactive) | GI50 (UACC-62): > 10 µM (inactive) | GI50 (XF498): 6.56 µM (inactive)

C[C@]12CC[C@H](O)CC1=CC[C@@H]1C2CC[C@]2(C)NC(=O)C(C#N)CC12 (some centres not stated)
GI50 (786-0): > 100 µM (inactive) | GI50 (A498): > 100 µM (inactive) | GI50 (A549): > 100 µM (inactive) | GI50 (ACHN): 28.6 µM (inactive) | GI50 (CAKI-1): > 100 µM (inactive) | GI50 (CCRF-CEM): > 100 µM (inactive) | GI50 (DLD-1): > 100 µM (inactive) | GI50 (DMS-114): > 100 µM (inactive) | GI50 (DMS-273): > 100 µM (inactive) | GI50 (EKVX): > 100 µM (inactive) | GI50 (HCC 2998): > 100 µM (inactive) | GI50 (HCT-116): > 100 µM (inactive) | GI50 (HCT-15): 37.8 µM | GI50 (HL-60): > 100 µM (inactive) | GI50 (HOP-62): > 100 µM (inactive) | GI50 (HT-29): > 100 µM (inactive) | GI50 (IGROV-1): > 100 µM (inactive) | GI50 (K562): 6.89 µM (inactive) | GI50 (KM-20L2): > 100 µM (inactive) | GI50 (KM12): > 100 µM (inactive) | GI50 (LXFL 529): > 100 µM (inactive) | GI50 (M14): > 100 µM (inactive) | GI50 (M19-MEL): > 100 µM (inactive) | GI50 (MOLT-4): > 100 µM (inactive) | GI50 (Malme-3M): > 100 µM (inactive) | GI50 (NCI-H226): > 100 µM (inactive) | GI50 (NCI-H23): > 100 µM (inactive) | GI50 (NCI-H460): > 100 µM (inactive) | GI50 (OVCAR-3): > 100 µM (inactive) | GI50 (OVCAR-4): > 100 µM (inactive) | GI50 (OVCAR-5): > 100 µM (inactive) | GI50 (OVCAR-8): > 100 µM (inactive) | GI50 (RPMI-8226): > 100 µM (inactive) | GI50 (RXF 393): 55.1 µM (inactive) | GI50 (SF-295): 12.8 µM (inactive) | GI50 (SF-539): > 100 µM (inactive) | GI50 (SK-MEL-28): 66.8 µM (inactive) | GI50 (SK-MEL-2): > 100 µM (inactive) | GI50 (SK-MEL-5): > 100 µM (inactive) | GI50 (SK-OV-3): > 100 µM (inactive) | GI50 (SNB-75): 51.4 µM (inactive) | GI50 (SNB-78): > 100 µM (inactive) | GI50 (SW-620): > 100 µM (inactive) | GI50 (TK-10): > 100 µM (inactive) | GI50 (U-251): > 100 µM (inactive) | GI50 (UACC-257): > 100 µM (inactive) | GI50 (UACC-62): 15.7 µM (inactive) | GI50 (UO-31): > 100 µM (inactive) | GI50 (XF498): > 100 µM (inactive)
